Test results from PMC6320962, “Synthesis, Experimental and Density Functional Theory (DFT) Studies on Solubility of Camptothecin Derivatives” (Molecules, 2018).

What was measured:
[1] = in words; cited from earlier work
wild-type HIV-1 = tested on: wild-type HIV-1; parameters: method as in PMID 21344906; details: cited from earlier work
[2] = clinical trial, early 1970s; cited from earlier work

Question: With `CC[C@@]1(O)C(=O)OCc2c1cc1n(c2=O)Cc2cc3ccccc3nc2-1` [CPT, Camptothecin] as the compound, how does the water solubility [1] read?
Answer: negligible water solubility

Question: Which melting point does the source give for `CC[C@@]1(O)C(=O)OCc2c1cc1n(c2=O)Cc2c-1nc1ccc(C3CCCCC3)cc1c2C` [P210, 10-Cyclohexyl-7-methyl-20(S)-camptothecin] here?
Answer: 243 to 245 °C

Question: With `Cc1cc(/C=C/C#N)cc(C)c1Nc1ccnc(Nc2ccc(C#N)cc2)n1` [rilpivirine] as the compound, how does the EC50 (wild-type HIV-1) read?
Answer: 0.67 nM

Question: For `CC[C@@]1(O)C(=O)OCc2c1cc1n(c2=O)Cc2c-1nc1ccc(N3CCOCC3)cc1c2C` [P211, 7-Methyl-10-morpholino-20(S)-camptothecin], which melting point is on record?
Answer: 283 to 285 °C

Question: With `CC[C@@](O)(C(=O)[O-])c1cc2n(c(=O)c1CO)Cc1cc3ccccc3nc1-2.[Na+]` [compound 15] as the compound, how does the efficacy [2] read?
Answer: low efficacy

Question: And the side effects [2]?
Answer: unpredictable and severe side effects, including hemorrhagic cystitis and myelotoxicity
